“Also recorded” adds a separate entry of the source.
Legend:
[1] = test system: collagen-induced arthritis (CIA) model; assay: CIA mouse model: clinical arthritis score and paw swelling; format: in vivo, C57 BL/6 mice; details: 10, 30, 50 mg/kg/day; days 1, 14, 21, 28
[2] = test system: OPRM1; design: method as in PMID 34817776; details: cited from earlier work
[3] = biological target: T1, ADAM17 (Homo sapiens, UniProt P78536); assay: ADAM17 enzyme assay with glycosylated substrate DM2; format: biochemical
T1 construct: purchased R & D Systems (Minneapolis, MN, USA)
T1 sequence (P78536 215-824, species assumed): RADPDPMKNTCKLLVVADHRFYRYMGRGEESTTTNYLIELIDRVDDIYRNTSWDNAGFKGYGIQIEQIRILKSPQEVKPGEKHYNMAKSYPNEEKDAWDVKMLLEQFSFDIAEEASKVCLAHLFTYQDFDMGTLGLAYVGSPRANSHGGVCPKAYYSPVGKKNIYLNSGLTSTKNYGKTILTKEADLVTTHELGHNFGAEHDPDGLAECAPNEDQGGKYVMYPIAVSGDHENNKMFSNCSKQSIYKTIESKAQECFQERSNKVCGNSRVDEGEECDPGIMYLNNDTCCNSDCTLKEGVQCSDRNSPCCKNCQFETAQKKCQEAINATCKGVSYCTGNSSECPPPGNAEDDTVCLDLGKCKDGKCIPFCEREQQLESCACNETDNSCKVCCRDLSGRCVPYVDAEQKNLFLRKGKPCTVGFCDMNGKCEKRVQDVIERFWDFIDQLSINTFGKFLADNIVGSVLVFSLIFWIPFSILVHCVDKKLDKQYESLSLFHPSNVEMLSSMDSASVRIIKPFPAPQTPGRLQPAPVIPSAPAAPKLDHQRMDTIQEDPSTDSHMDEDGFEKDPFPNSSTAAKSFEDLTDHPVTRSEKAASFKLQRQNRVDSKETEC
Method: ADAM10 and ADAM17 assays. Both assays were performed as published previously by us. Briefly, both assays followed the same general protocol. In total, 5 μL of the 2× enzyme solution (20 nM) in an assay buffer (10 mM Hepes, 0.001% Brij-35, pH 7.5) were added to solid bottom black 384 plates (Nunc, ThermoFisher, Waltham, MA, USA, cat# 264705). Next, test compounds and pharmacological controls were added to the corresponding wells using a 384-pin tool device (V & P Scientific, San Diego, CA, USA). After 60 min of incubation at RT, the reactions were started via the addition of 5 μL of the 2× solutions of glycosylated substrate DM2 (20 μM). The reactions were incubated at RT for 2 h, after which the fluorescence was measured using a Biotek H1 multimode microplate imager (λexcitation = 360 nm, λemission = 460 nm). IC50 values were calculated by fitting normalized data to the sigmoidal log vs. the response equation utilizing a non-linear regression analysis from GraphPad Prizm 9.

[4] = test system: articular joints affected by RA; assay: Histopathology (H & E) of arthritic joint, CIA mice; format: in vivo, C57 BL/6 mice
Method: (§1) The sample size for therapeutic evaluation was calculated using power analysis based on experimental data from similar studies. In a two-sided test and setting the α value at 0.05 and desired power at 0.95, the sample size turned out to be 5 per group. We also expected deaths during the experiments; therefore, we used the formula Nt = N/1-q, where Nt is the number of mice initially used, N is the number required at the end of the study, and q is the proportion of attrition, which is generally 10%. Thus, at the end of the study period, we expected to have data from at least […] per group, which is enough to attain statistical significance if it exists. Data were analyzed using a one-way ANOVA followed by Dunnett’s test compared with the vehicle control. At the end of the study, the mice were anesthetized and sacrificed using CO2 euthanasia. The hind paws of the mice were subjected to a histopathological examination, and the serum was analyzed for CRP, TNF-α, IL-6, and IL-10, as described in the below sections. Histology. Limbs from euthanized animals were preserved in buffered formalin, decalcified, embedded, sectioned, and stained with hematoxylin and eosin (H & E). Microscopic images were acquired using the Lx 400 microscope (Labomed, Fremont, CA, USA).

[5] = test system: TNFα; assay: RA serum marker ELISA, TNFα, CIA mice; format: in vivo, C57 BL/6 mice
Method: as §1, with “sections.” for “sections. Histology. Limbs from euthanized animals were preserved in buffered formalin, decalcified, embedded, sectioned, and stained with hematoxylin and eosin (H & E). Microscopic images were acquired using the Lx 400 microscope (Labomed, Fremont, CA, USA).”
(§2) RA serum marker analysis. Blood was collected from the tail vein, and 100 µL was used for the assays. All assays were conducted using the manufacturer’s instructions for the respective assay kits. The following assay kits were purchased: Mouse TNF-α GENLISA™ ELISA (Krishgen BioSystems cat#KB2145, Mumbai, India), Mouse IL-10 GENLISA™ ELISA (Krishgen BioSystems cat#KB2072), Mouse hsC-Reactive Protein, hs-CRP GENLISA™ ELISA (Krishgen BioSystems cat#KLM0318), Mouse IL-6 GENLISA™ ELISA (Krishgen BioSystems cat#KB2068).

[6] = test system: multiple cell lines; design: method as in PubChem Assay IDs 1794763-1794787, 19, 20; details: 10 µM and up to 100 µM in some cases; ref PubChem Assay IDs 1794763-1794787, 19, 20; cited from earlier work
[7] = test system: PBMCs and neutrophils; design: method as in PMID 28442704; details: cited from earlier work
[8] = test system: muscarinic (CHRM1); design: method as in PMID 34817776; details: cited from earlier work
[9] = biological target: DNA polymerase β; design: method as in PubChem AID 485314; details: ref PubChem AID 485314; cited from earlier work
[10] = test system: C-reactive protein (CRP); assay: RA serum marker ELISA, CRP, CIA mice; format: in vivo, C57 BL/6 mice
Method: as §1, with “sections.” for “sections. Histology. Limbs from euthanized animals were preserved in buffered formalin, decalcified, embedded, sectioned, and stained with hematoxylin and eosin (H & E). Microscopic images were acquired using the Lx 400 microscope (Labomed, Fremont, CA, USA).”
as §2

[11] = CID 3117694 50 mg/kg/day, indomethacin 2.5 mg/kg

## COc1cccc(C(=O)NNC(=O)C(=O)Nc2ccc(C)c(Cl)c2)c1 [CID 3117694]
[1]
  paw swelling (in words): time- and dose-dependently decrease paw swelling
[2]
  activity against OPRM1: inactive
[3]
  IC50: > 100 µM
[4]; 10 mg/kg/day
  histopathological findings (in words): did not have a pronounced effect on RA markers
[4]; 30 mg/kg/day
  histopathological findings (in words): reduced erosion but not the rest of the symptoms
[4]; 50 mg/kg/day
  histopathological findings (in words): significant reduction in RA hallmarks in most samples; also recorded: healthy bone and cartilage similar to the healthy controls
[5]; [11]
  TNFα blood level vs healthy control: decreased the markers to the level of the healthy control
[5]; all tested doses (10, 30, 50 mg/kg), vs vehicle control
  concentration of TNFα in the blood of arthritic mice: lowers
[6]
  effect on cellular viability: no effect
[7]
  recruitment of PBMCs and neutrophils: can inhibit
[8]
  activity against CHRM1: inactive
[9]
  IC50: 79 µM
[10]; 30 and 50 mg/kg, vs vehicle control
  concentration of CRP in the blood of arthritic mice: lowers
[10]; [11]
  CRP blood level vs healthy control: decreased the markers to the level of the healthy control

From paper PMC10819767, “An ADAM10 Exosite Inhibitor Is Efficacious in an In Vivo Collagen-Induced Arthritis Model” (Pharmaceuticals, 2024)
